Data taken from patent publication US10463644B2, “Uses of sesquiterpene lactone compounds and their derivatives in drugs preparation” (ACCENDATECH, priority 2013, dated 2019).

Assays:
[1] = tested on: cancer cells; assay: Survival rate of cancer cells after test compound is added (flow cytometry, Annexin V-FITC/PI, clinical specimen); format: cell-based, patient
Excerpt: (§1) Take fresh or cryopreserved clinical specimen (acute myelogenous leukemia (AML, marker is CD34^+/CD38^+), chronic myelogenous leukemia (CML, Ph+/CD34+/CXCR4+), chronic lymphocytic leukemia (CLL,CD133+/CD19−/CD38−), skin cancer (CD34+), breast cancer (CD44+/CD24−/ESA+), ovarian cancer (CD44+/CD117+), brain tumor (CD133+) prostate cancer (CD44+/CD24−), head-neck squamous cell carcinoma (CD44+), laryngeal cancer (CD133+), pancreatic cancer (ESA+/CD44+/CD24+), retinoblastoma (ABCG2/ALDH1), Children hepatoblastoma (CD34+/THY1+/c-kit+), liver cancer (CD133+), malignant melanoma (CD133+), colorectal cancer (EpCAM^high/CD44+), colon adenocarcinoma (CD44^high), glioma (ABCG-2/BCRP1), gastrointestinal tumor (ABCG-2/BCRP1), nasopharynx cancer (ABCG2), brain glioma (Dlk-1/Pref-1), gastric cancer (CD45+), lung adenocarcinoma (Sca-1/CD45-/Pecam-/CD34+), lung cancer (CD133+CD34+CD44+)) of patient. Take the acute myelogenous leukemia as the example, conduct density gradient centrifugation with Ficoll and take out the middle mononuclear cells, re-suspend it with serum-free IMDM after centrifuged. Adjust the concentration of cells into 1×10^6/mL and lay 24-well plate with 1 mL in each well, and then treat 18 hours with the compound to select with corresponding concentration. Collect the cells and centrifuge them at 1500 rps for 8 minutes, re-suspend the precipitation with […], mark the antibodies related to leukemia stem cell, avoid light to incubate 30 minutes at room temperature and then centrifuge it at 1500 rps, then wash away the unbound antibody CD34^+CD38^+. Re-suspend it with 100 μl 1× Binding Buffer and add respectively 5 μl Annexin V-FITC and PI, then avoid light to incubate 15 minutes before add 200 μl 1× Binding Buffer, then use flow cytometry to examine the marked apoptosis within one hour.

[2] = tested on: PGE2 secreted by synoviocyte; assay: Content of PGE2 in culture supernatant of synoviocyte of RA model rats given test compound; format: in vivo; conditions: rat RA model, dose 30 mg/kg.2d; normal control 8.34 ± 1.29, NaCl 32.44 ± 10.32
Excerpt: (§2) Take Compound 1-50 prepared as per the method according to the present invention and employ the method provided in Reference to prepare model, group drugs and prepare culture supernatant of rat synoviocyte.
(§3) Employ the method provided in Reference to investigate the effects of the test compounds on the synoviocyte to secrete TNF-α and PGE2. Employ the method provided in Reference to investigate the effects of the test compounds on the synoviocyte to secrete IL-1β.
(§4) The experimental data of the test compound 1-50 at a dose of 30 mg/kg.2d as well as the normal control and NaCl group are as follows: […]

[3] = tested on: normal cells; assay: Survival rate of normal cells after test compound is added (flow cytometry, Annexin V-FITC/PI); format: cell-based
Excerpt: as §1

[4] = tested on: cancer stem cells; assay: Survival rate of cancer stem cells after test compound is added (flow cytometry, Annexin V-FITC/PI, clinical specimen); format: cell-based, patient
Excerpt: as §1

[5] = tested on: TNF-α secreted by synoviocyte; assay: Content of TNF-α in culture supernatant of synoviocyte of RA model rats given test compound; format: in vivo; conditions: rat RA model, dose 30 mg/kg.2d; normal control 0.38 ± 0.027, NaCl 0.74 ± 0.098
Excerpt: as §2, §3, §4

[6] = tested on: IL-1β secreted by synoviocyte; assay: Content of IL-1β in culture supernatant of synoviocyte of RA model rats given test compound; format: in vivo; conditions: rat RA model, dose 30 mg/kg.2d; normal control 0.16 ± 0.034, NaCl 0.49 ± 0.136
Excerpt: as §2, §3, §4

[7] = Children hepatoblastoma, 10.0 μM
[8] = Children hepatoblastoma, 20.0 μM
[9] = Gastrointestinal tumor, 10.0 μM
[10] = Gastrointestinal tumor, 20.0 μM
[11] = Head and neck squamous cell carcinomas, 10.0 μM
[12] = Head and neck squamous cell carcinomas, 20.0 μM

SMILES: CN(C)C[C@@H]1C(=O)O[C@H]2[C@H]1CCC1(CC1)[C@@H]1CCC3(CC3)[C@H]21.Cl [Compound 28]
- Survival rate (%) All cells (Stem cells and ordinary cells) ([1]; AML, 10.0 μM): 94%
- Survival rate (%) All cells (Stem cells and ordinary cells) ([1]; AML, 20.0 μM): 87%
- Survival rate (%) All cells (Stem cells and ordinary cells) ([1]; Brain glioma, 10.0 μM): 89%
- Survival rate (%) All cells (Stem cells and ordinary cells) ([1]; Brain glioma, 20.0 μM): 86%
- Survival rate (%) All cells (Stem cells and ordinary cells) ([1]; Brain tumor, 10.0 μM): 91%
- Survival rate (%) All cells (Stem cells and ordinary cells) ([1]; Brain tumor, 20.0 μM): 87%
- Survival rate (%) All cells (Stem cells and ordinary cells) ([1]; Breast cancer, 10.0 μM): 87%
- Survival rate (%) All cells (Stem cells and ordinary cells) ([1]; Breast cancer, 20.0 μM): 83%
- Survival rate (%) All cells (Stem cells and ordinary cells) ([1]; CLL, 10.0 μM): 91%
- Survival rate (%) All cells (Stem cells and ordinary cells) ([1]; CLL, 20.0 μM): 87%
- Survival rate (%) All cells (Stem cells and ordinary cells) ([1]; CML, 10.0 μM): 92%
- Survival rate (%) All cells (Stem cells and ordinary cells) ([1]; CML, 20.0 μM): 89%
- Survival rate (%) All cells (Stem cells and ordinary cells) [1, 7]: 92%
- Survival rate (%) All cells (Stem cells and ordinary cells) [1, 8]: 89%
- Survival rate (%) All cells (Stem cells and ordinary cells) ([1]; Colon adenocarcinoma, 10.0 μM): 88%
- Survival rate (%) All cells (Stem cells and ordinary cells) ([1]; Colon adenocarcinoma, 20.0 μM): 85%
- Survival rate (%) All cells (Stem cells and ordinary cells) ([1]; Colorectal cancer, 10.0 μM): 87%
- Survival rate (%) All cells (Stem cells and ordinary cells) ([1]; Colorectal cancer, 20.0 μM): 83%
- Survival rate (%) All cells (Stem cells and ordinary cells) ([1]; Gastric cancer, 10.0 μM): 88%
- Survival rate (%) All cells (Stem cells and ordinary cells) ([1]; Gastric cancer, 20.0 μM): 81%
- Survival rate (%) All cells (Stem cells and ordinary cells) [1, 9]: 88%
- Survival rate (%) All cells (Stem cells and ordinary cells) [1, 10]: 89%
- Survival rate (%) All cells (Stem cells and ordinary cells) ([1]; Glioma, 10.0 μM): 93%
- Survival rate (%) All cells (Stem cells and ordinary cells) ([1]; Glioma, 20.0 μM): 86%
- Survival rate (%) All cells (Stem cells and ordinary cells) [1, 11]: 87%
- Survival rate (%) All cells (Stem cells and ordinary cells) [1, 12]: 83%
- Survival rate (%) All cells (Stem cells and ordinary cells) ([1]; Laryngeal cancer, 10.0 μM): 92%
- Survival rate (%) All cells (Stem cells and ordinary cells) ([1]; Laryngeal cancer, 20.0 μM): 89%
- Survival rate (%) All cells (Stem cells and ordinary cells) ([1]; Liver cancer, 10.0 μM): 91%
- Survival rate (%) All cells (Stem cells and ordinary cells) ([1]; Liver cancer, 20.0 μM): 87%
- Survival rate (%) All cells (Stem cells and ordinary cells) ([1]; Lung adenocarcinoma, 10.0 μM): 91%
- Survival rate (%) All cells (Stem cells and ordinary cells) ([1]; Lung adenocarcinoma, 20.0 μM): 89%
- Survival rate (%) All cells (Stem cells and ordinary cells) ([1]; Lung cancer, 10.0 μM): 94%
- Survival rate (%) All cells (Stem cells and ordinary cells) ([1]; Lung cancer, 20.0 μM): 87%
- Survival rate (%) All cells (Stem cells and ordinary cells) ([1]; Malignant melanoma, 10.0 μM): 91%
- Survival rate (%) All cells (Stem cells and ordinary cells) ([1]; Malignant melanoma, 20.0 μM): 88%
- Survival rate (%) All cells (Stem cells and ordinary cells) ([1]; Nasopharynx cancer, 10.0 μM): 92%
- Survival rate (%) All cells (Stem cells and ordinary cells) ([1]; Nasopharynx cancer, 20.0 μM): 89%
- Survival rate (%) All cells (Stem cells and ordinary cells) ([1]; Ovarian cancer, 10.0 μM): 88%
- Survival rate (%) All cells (Stem cells and ordinary cells) ([1]; Ovarian cancer, 20.0 μM): 85%
- Survival rate (%) All cells (Stem cells and ordinary cells) ([1]; Pancreatic cancer, 10.0 μM): 93%
- Survival rate (%) All cells (Stem cells and ordinary cells) ([1]; Pancreatic cancer, 20.0 μM): 92%
- Survival rate (%) All cells (Stem cells and ordinary cells) ([1]; Prostate cancer, 10.0 μM): 91%
- Survival rate (%) All cells (Stem cells and ordinary cells) ([1]; Prostate cancer, 20.0 μM): 88%
- Survival rate (%) All cells (Stem cells and ordinary cells) ([1]; Retinoblastoma, 10.0 μM): 90%
- Survival rate (%) All cells (Stem cells and ordinary cells) ([1]; Retinoblastoma, 20.0 μM): 85%
- Survival rate (%) All cells (Stem cells and ordinary cells) ([1]; Skin cancer, 10.0 μM): 91%
- Survival rate (%) All cells (Stem cells and ordinary cells) ([1]; Skin cancer, 20.0 μM): 88%
- Content of PGE2 in culture supernatant of synoviocyte (x ± s) [2]: 18.92 ± 1.98 ng/mL
- Survival rate (%) All cells (Stem cells and ordinary cells) ([3]; 10.0 μM): 96%
- Survival rate (%) Stem cells ([3]; 10.0 μM): 94%
- Survival rate (%) All cells (Stem cells and ordinary cells) ([3]; 20.0 μM): 95%
- Survival rate (%) Stem cells ([3]; 20.0 μM): 92%
- Survival rate (%) Stem cells ([4]; AML, 10.0 μM): 87%
- Survival rate (%) Stem cells ([4]; AML, 20.0 μM): 76%
- Survival rate (%) Stem cells ([4]; Brain glioma, 10.0 μM): 82%
- Survival rate (%) Stem cells ([4]; Brain glioma, 20.0 μM): 76%
- Survival rate (%) Stem cells ([4]; Brain tumor, 10.0 μM): 82%
- Survival rate (%) Stem cells ([4]; Brain tumor, 20.0 μM): 73%
- Survival rate (%) Stem cells ([4]; Breast cancer, 10.0 μM): 81%
- Survival rate (%) Stem cells ([4]; Breast cancer, 20.0 μM): 75%
- Survival rate (%) Stem cells ([4]; CLL, 10.0 μM): 82%
- Survival rate (%) Stem cells ([4]; CLL, 20.0 μM): 73%
- Survival rate (%) Stem cells ([4]; CML, 10.0 μM): 85%
- Survival rate (%) Stem cells ([4]; CML, 20.0 μM): 77%
- Survival rate (%) Stem cells [4, 7]: 85%
- Survival rate (%) Stem cells [4, 8]: 77%
- Survival rate (%) Stem cells ([4]; Colon adenocarcinoma, 10.0 μM): 82%
- Survival rate (%) Stem cells ([4]; Colon adenocarcinoma, 20.0 μM): 74%
- Survival rate (%) Stem cells ([4]; Colorectal cancer, 10.0 μM): 81%
- Survival rate (%) Stem cells ([4]; Colorectal cancer, 20.0 μM): 75%
- Survival rate (%) Stem cells ([4]; Gastric cancer, 10.0 μM): 79%
- Survival rate (%) Stem cells ([4]; Gastric cancer, 20.0 μM): 72%
- Survival rate (%) Stem cells [4, 9]: 82%
- Survival rate (%) Stem cells [4, 10]: 76%
- Survival rate (%) Stem cells ([4]; Glioma, 10.0 μM): 85%
- Survival rate (%) Stem cells ([4]; Glioma, 20.0 μM): 79%
- Survival rate (%) Stem cells [4, 11]: 81%
- Survival rate (%) Stem cells [4, 12]: 75%
- Survival rate (%) Stem cells ([4]; Laryngeal cancer, 10.0 μM): 85%
- Survival rate (%) Stem cells ([4]; Laryngeal cancer, 20.0 μM): 77%
- Survival rate (%) Stem cells ([4]; Liver cancer, 10.0 μM): 82%
- Survival rate (%) Stem cells ([4]; Liver cancer, 20.0 μM): 73%
- Survival rate (%) Stem cells ([4]; Lung adenocarcinoma, 10.0 μM): 88%
- Survival rate (%) Stem cells ([4]; Lung adenocarcinoma, 20.0 μM): 81%
- Survival rate (%) Stem cells ([4]; Lung cancer, 10.0 μM): 87%
- Survival rate (%) Stem cells ([4]; Lung cancer, 20.0 μM): 76%
- Survival rate (%) Stem cells ([4]; Malignant melanoma, 10.0 μM): 84%
- Survival rate (%) Stem cells ([4]; Malignant melanoma, 20.0 μM): 78%
- Survival rate (%) Stem cells ([4]; Nasopharynx cancer, 10.0 μM): 85%
- Survival rate (%) Stem cells ([4]; Nasopharynx cancer, 20.0 μM): 77%
- Survival rate (%) Stem cells ([4]; Ovarian cancer, 10.0 μM): 85%
- Survival rate (%) Stem cells ([4]; Ovarian cancer, 20.0 μM): 79%
- Survival rate (%) Stem cells ([4]; Pancreatic cancer, 10.0 μM): 86%
- Survival rate (%) Stem cells ([4]; Pancreatic cancer, 20.0 μM): 78%
- Survival rate (%) Stem cells ([4]; Prostate cancer, 10.0 μM): 84%
- Survival rate (%) Stem cells ([4]; Prostate cancer, 20.0 μM): 78%
- Survival rate (%) Stem cells ([4]; Retinoblastoma, 10.0 μM): 84%
- Survival rate (%) Stem cells ([4]; Retinoblastoma, 20.0 μM): 80%
- Survival rate (%) Stem cells ([4]; Skin cancer, 10.0 μM): 84%
- Survival rate (%) Stem cells ([4]; Skin cancer, 20.0 μM): 78%
- Content of TNF-α in culture supernatant of synoviocyte (x ± s) [5]: 0.47 ± 0.056 ng/mL
- Content of IL-1β in culture supernatant of synoviocyte (x ± s) [6]: 0.31 ± 0.067 ng/mL
